Assays:
Format in all cases: in vivo
Aedes aegypti [1] = assay: in vitro Warm Body assay, substance applied on glass Petri dish on top of the warm body (deterrence and repellence)
Procedure: (§1) The controlling effect, repellence & spatial repellence, according to the present invention is determined by testing the Warm Body assay against the yellow fever mosquito, Aedes aegypti Rockefeller strain. […] Observations of controlling efficacy were made on host-seeking females of uniform age, 5 to 10 days old selected as mentioned in the publication mentioned hereinabove. Tested hungry females had access to 10% sugar solution but were not blood-fed. Further information is provided in the accompanying examples.
(§2) The published protocol has been adapted in not manually counting the landing mosquitoes but automatically using an automatic counting software, the switch from Anopheles gambiae to A. aegypti led to a decrease of mosquitoes’ number placed in the tested cage due to the size difference (i.e. 30 mosquitoes instead of 50) and to an increase of lighting as A. aegypti is a diurnal mosquitoes (i.e. 150 lux instead of 4 lux). Further information is provided in the accompanying examples.,
(§3) The controlling effect of the compositions according to the present invention was assessed using an adapted Warm Body assay as defined in Kröber T, Kessler S, Frei J, Bourquin M, Guerin PM. 2010. An in vitro assay for testing mosquito controlling compounds employing a warm body and carbon dioxide as a behavioral activator. J Am Mosq Control Assoc. 26:381-386. In this in-vitro assay the number of mosquito landing on a warm body, simulating an attractive host treated with the tested stimuli, was measured in order to assess the repellence effect.
as §2, with “to Aedes” for “to A.”, “lux).” for “lux). Further information is provided in the accompanying examples.,”
(§4) In addition, since the inventors were interested by assessing spatial repellence added or not to a deterrent effect, the substance was applied using two different technics. Whether, as in Kröber et al. (2010), both deterrent and repellent effect were investigated (i.e. similar effect than most body care applications such as lotion) and the substances was applied on a sandblasted glass Petri dish placed on top of the warm body. Whether only the spatial repellence was investigated (i.e. similar effect than most home care applications such as liquid electric dispenser) and the substance was introduced in the cage space thanks to a forced evaporation system as described in Chappuis C J-F, Niclass Y, Vuilleumier C, Starkenmann C. 2015. Quantitative Headspace Analysis of Selected Odorants from Latrines in Africa and India. Environ. Sci. Technol. 49:6134-6140.
(§5) As stated in Kröber et al. (2010), selected 10-12 days old hungry females, that had ad libitum access to 10% sugar solution but were not blood-fed, were selected for the assay.
On the sandblasted glass Petri dish covering the warm body (28.3 cm^2), 100 µL of the substances diluted at different concentrations in ethanol was applied. The number of mosquito landing on the warm body was counted for each stimuli, N,N-diethyl-3-methylbenzamide (DEET) and ethyl 3-[acetyl(butyl)amino]propanoate (IR3535) being used as benchmarks and pure ethanol as control.

Aedes aegypti [2] = assay: in vitro Warm Body assay, substance introduced in the cage air by forced evaporation (spatial repellence)
Procedure: as §1, §2, §3
as §2, with “to Aedes” for “to A.”, “lux).” for “lux). Further information is provided in the accompanying examples.,”
as §4, §5
The forced evaporation system allows to fill the volume of the cage with stimuli tested, (2-methyl-4-oxo-3-prop-2-ynylcyclopent-2-en-1-yl) 2,2-dimethyl-3-(2-methylprop-1-enyl)cyclopropane-1-carboxylate (prallethrin) and N,N-diethyl-3-methylbenzamide (DEET) being used as benchmarks. In order to limit potential dead volumes in the cage, five flushes of the cage were made before starting the 2 minutes test during which the number of mosquito landings was counted.

Ixodes ricinus = assay: whole plant or invertebrate; conditions: for pest or weed control at 1 µg/cm2, 1 µg/cm2 / pest or weed control at 5 µg/cm2, 5 µg/cm2 / pest or weed control at 25 µg/cm2, 25 µg/cm2: Ixodes ricinus, read-out: mean percentage of ticks affected
[3] = 0.04% in ethanol, ethanol control 59.3±6.9 landings
[4] = 1% in ethanol, ethanol control 59.3±6.9 landings
[5] = […] in ethanol, ethanol control 59.3±6.9 landings
[6] = 0.0017 µg/L air, without substance 54.7±3.2
[7] = 0.017 µg/L air, without substance 54.7±3.2
[8] = 0.17 µg/L air, without substance 54.7±3.2
[9] = 1.7 µg/L air, without substance 54.7±3.2
[10] = 17 µg/L air, without substance 54.7±3.2

| Structure (SMILES) | number of mosquitoes landing within 2 minutes on the warm body (Aedes aegypti [1]; [3]) | number of mosquitoes landing within 2 minutes on the warm body (Aedes aegypti [1]; [4]) | number of mosquitoes landing within 2 minutes on the warm body (Aedes aegypti [1]; [5]) | number of mosquitoes landing within 2 minutes on the warm body, air in the cage saturated with stimulus (Aedes aegypti [2]; [6]) | number of mosquitoes landing within 2 minutes on the warm body, air in the cage saturated with stimulus (Aedes aegypti [2]; [7]) | number of mosquitoes landing within 2 minutes on the warm body, air in the cage saturated with stimulus (Aedes aegypti [2]; [8]) | number of mosquitoes landing within 2 minutes on the warm body, air in the cage saturated with stimulus (Aedes aegypti [2]; [9]) | number of mosquitoes landing within 2 minutes on the warm body, air in the cage saturated with stimulus (Aedes aegypti [2]; [10]) | pest or weed control at 1 µg/cm2, 1 µg/cm2 (Ixodes ricinus) [%] | pest or weed control at 5 µg/cm2, 5 µg/cm2 (Ixodes ricinus) [%] | pest or weed control at 25 µg/cm2, 25 µg/cm2 (Ixodes ricinus) [%] | further results |
| --- | --- | --- | --- | --- | --- | --- | --- | --- | --- | --- | --- | --- |
| C=C(C)[C@@H]1CC=C(C)C(=O)C1 [(5R)-2-methyl-5-prop-1-en-2-ylcyclohex-2-en-1-one] | 16.0 | 3.0 | 24.0 | 20.0 | 27.0 | 2.0 | 2.0 | 2.0 | 50 | 17 | 57 | – |
| C/C=C/C(=O)C1C(C)=CCCC1(C)C (stereo not drawn) [(E)-1-(2,6,6-trimethylcyclohex-2-en-1-yl)but-2-en-1-one] | – | – | – | – | – | – | – | – | 13 | 6 | 83 | number of mosquitoes landing within 2 minutes on the warm body (Aedes aegypti [1]; 0.04% in ethanol, ethanol control 67.1±9.1 landings): 34.0; number of mosquitoes landing within 2 minutes on the warm body (Aedes aegypti [1]; 1% in ethanol, ethanol control 67.1±9.1 landings): 9.0; number of mosquitoes landing within 2 minutes on the warm body (Aedes aegypti [1]; […] in ethanol, ethanol control 67.1±9.1 landings): 70.0; number of mosquitoes landing within 2 minutes on the warm body, air in the cage saturated with stimulus (Aedes aegypti [2]; 0.0017 µg/L air, without substance 56.0±3.6): 6.0; number of mosquitoes landing within 2 minutes on the warm body, air in the cage saturated with stimulus (Aedes aegypti [2]; 0.017 µg/L air, without substance 56.0±3.6): 11.0; number of mosquitoes landing within 2 minutes on the warm body, air in the cage saturated with stimulus (Aedes aegypti [2]; 0.17 µg/L air, without substance 56.0±3.6): 4.0; number of mosquitoes landing within 2 minutes on the warm body, air in the cage saturated with stimulus (Aedes aegypti [2]; 1.7 µg/L air, without substance 56.0±3.6): 4.0; number of mosquitoes landing within 2 minutes on the warm body, air in the cage saturated with stimulus (Aedes aegypti [2]; 17 µg/L air, without substance 56.0±3.6): 1.0; repulsion (Aedes aegypti [2]; at all five tested concentrations): more than 80%; landings in 2 minutes (Aedes aegypti [2]; dose of 0.17 µg/L of air): less than five |
| O=c1ccc2ccccc2o1 [chromen-2-one] | 0.0 | 1.0 | 118.0 | 36.0 | 3.0 | 10.0 | 1.0 | 0.0 | 27 | 71 | 80 | tick response compared with the benchmark IR3535 (Ixodes ricinus; concentrations tested): response similar to the benchmark IR3535 |

Reference: patent publication US20230247992A1, “ARTHROPOD CONTROL COMPOSITION” (Firmenich SA, priority 2020, published 2023)
